The compounds below were run against S. aureus GyrB ATPase (Staphylococcus aureus, UniProt P0A0K8) (assay: S. aureus GyrB ATPase inhibition (ammonium molybdate/malachite green phosphate detection)). Conditions: compound concentration of 1 μM.
S. aureus GyrB ATPase, sequence (P0AES4 whole entry): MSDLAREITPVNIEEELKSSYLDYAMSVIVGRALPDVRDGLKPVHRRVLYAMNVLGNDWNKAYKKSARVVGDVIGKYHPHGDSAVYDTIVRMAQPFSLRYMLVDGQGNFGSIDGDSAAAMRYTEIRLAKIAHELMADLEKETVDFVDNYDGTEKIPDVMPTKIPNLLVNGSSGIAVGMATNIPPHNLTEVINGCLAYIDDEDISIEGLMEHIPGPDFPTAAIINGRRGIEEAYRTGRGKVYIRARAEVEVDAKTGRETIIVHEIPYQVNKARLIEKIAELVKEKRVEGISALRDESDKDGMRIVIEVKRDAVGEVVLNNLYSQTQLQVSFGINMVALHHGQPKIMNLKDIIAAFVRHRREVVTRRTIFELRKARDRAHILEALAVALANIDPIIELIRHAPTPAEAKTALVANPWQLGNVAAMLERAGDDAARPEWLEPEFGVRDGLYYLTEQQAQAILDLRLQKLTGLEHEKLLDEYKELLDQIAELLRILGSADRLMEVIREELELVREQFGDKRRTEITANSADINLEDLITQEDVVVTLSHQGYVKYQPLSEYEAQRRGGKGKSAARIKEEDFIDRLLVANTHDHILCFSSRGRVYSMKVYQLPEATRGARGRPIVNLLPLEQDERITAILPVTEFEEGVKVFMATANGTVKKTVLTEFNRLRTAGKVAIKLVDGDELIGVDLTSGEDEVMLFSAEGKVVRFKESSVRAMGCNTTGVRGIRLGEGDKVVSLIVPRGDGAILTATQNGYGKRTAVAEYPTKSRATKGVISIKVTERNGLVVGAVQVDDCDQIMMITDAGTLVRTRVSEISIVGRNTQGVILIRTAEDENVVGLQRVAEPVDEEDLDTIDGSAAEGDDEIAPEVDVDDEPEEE
S. aureus GyrB ATPase, sequence (P0A0K8 whole entry): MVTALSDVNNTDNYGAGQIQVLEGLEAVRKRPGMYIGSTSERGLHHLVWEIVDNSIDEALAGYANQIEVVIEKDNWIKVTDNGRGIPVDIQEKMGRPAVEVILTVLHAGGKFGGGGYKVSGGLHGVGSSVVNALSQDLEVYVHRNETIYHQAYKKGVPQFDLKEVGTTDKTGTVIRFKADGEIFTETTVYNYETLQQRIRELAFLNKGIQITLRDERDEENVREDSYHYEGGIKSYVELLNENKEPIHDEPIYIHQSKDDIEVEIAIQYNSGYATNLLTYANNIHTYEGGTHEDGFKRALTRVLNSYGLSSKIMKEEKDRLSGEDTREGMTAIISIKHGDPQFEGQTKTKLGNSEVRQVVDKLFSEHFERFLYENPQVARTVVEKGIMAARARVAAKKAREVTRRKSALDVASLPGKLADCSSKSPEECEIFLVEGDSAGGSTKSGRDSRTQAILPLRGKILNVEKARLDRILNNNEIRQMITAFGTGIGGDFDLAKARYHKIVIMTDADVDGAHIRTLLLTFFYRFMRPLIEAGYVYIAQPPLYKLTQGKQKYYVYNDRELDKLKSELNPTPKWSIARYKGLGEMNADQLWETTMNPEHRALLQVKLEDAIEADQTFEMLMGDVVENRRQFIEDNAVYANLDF
Type: biochemical
How it was run: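 E. coli GyrA and S. aureus GyrB (250 pM each) with sheared salmon sperm DNA and 250 μM ATP, pH 7.5 Hepes buffer. Released phosphate detected by malachite green/ammonium molybdate at 650 nm; percent inhibition at 1 μM compound unless noted, normalized to 2% DMSO (0%) and EDTA (100%) controls.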
`CCOC(=O)c1sc(N2CC[C@@H](NC(=O)c3[nH]c(C)c(Cl)c3Cl)[C@@H](OC)C2)nc1-c1cnc(C)cn1` [Example 96, ethyl 2-((3S,4R)-4-(3,4-dichloro-5-methyl-1H-pyrrole-2-carboxamido)-3-methoxypiperidin-1-yl)-4-(5-methylpyrazin-2-yl)thiazole-5-carboxylate] showed an inhibition at 1 µM of 90.2%.
Compound `CCOC(=O)c1sc(N2CC[C@@H](NC(=O)c3[nH]c(C)c(Cl)c3Cl)[C@@H](OC)C2)nc1-c1ncccc1F` [Example 97, ethyl 2-((3S,4R)-4-(3,4-dichloro-5-methyl-1H-pyrrole-2-carboxamido)-3-methoxypiperidin-1-yl)-4-(3-fluoropyridin-2-yl)thiazole-5-carboxylate] has an inhibition at 1 µM of 91.5%.
`CCOC(=O)c1sc(N2CC[C@@H](NC(=O)c3[nH]c(C)c(Cl)c3Cl)[C@@H](F)C2)nc1-c1cc(OC)ccn1` [Example 98, Ethyl 2-((3S,4R)-4-(3,4-dichloro-5-methyl-1H-pyrrole-2-carboxamido)-3-fluoropiperidin-1-yl)-4-(4-methoxypyridin-2-yl)thiazole-5-carboxylate] gave an inhibition at 1 µM of 84.4%.
`COC(=O)c1sc(N2CC[C@@H](NC(=O)c3[nH]c(C)c(Cl)c3Cl)[C@@H](F)C2)nc1-c1cn(C)nn1` [Example 99, methyl 2-((3S,4R)-4-(3,4-dichloro-5-methyl-1H-pyrrole-2-carboxamido)-3-fluoropiperidin-1-yl)-4-(1-methyl-1H-1,2,3-triazol-4-yl)thiazole-5-carboxylate] gave an inhibition at 1 µM of 102%.
For `COC(=O)c1sc(N2CC[C@@H](NC(=O)c3[nH]c(C)c(Cl)c3Cl)[C@@H](F)C2)nc1-c1cccc(OC)n1` [Example 100, methyl 2-((3S,4R)-4-(3,4-dichloro-5-methyl-1H-pyrrole-2-carboxamido)-3-fluoropiperidin-1-yl)-4-(6-methoxypyridin-2-yl)thiazole-5-carboxylate], the inhibition at 1 µM was 112%.
`CCOC(=O)c1sc(N2CC[C@@H](NC(=O)c3[nH]c(C)c(Cl)c3Cl)[C@@H](F)C2)nc1-c1ncccc1F` [Example 102, ethyl 2-((3S,4R)-4-(3,4-dichloro-5-methyl-1H-pyrrole-2-carboxamido)-3-fluoropiperidin-1-yl)-4-(3-fluoropyridin-2-yl)thiazole-5-carboxylate] showed an inhibition at 1 µM of 81.4%.
Compound `COC(=O)c1sc(N2CC[C@@H](NC(=O)c3[nH]c(C)c(Cl)c3C#N)[C@@H](OC)C2)nc1-c1cn(C)nn1` [Example 103, methyl 2-((3S,4R)-4-(4-chloro-3-cyano-5-methyl-1H-pyrrole-2-carboxamido)-3-methoxypiperidin-1-yl)-4-(1-methyl-1H-1,2,3-triazol-4-yl)thiazole-5-carboxylate] has an inhibition at 1 µM of 85.7%.
`COC(=O)c1sc(N2CC[C@@H](NC(=O)c3[nH]c(C)c(Cl)c3C#N)[C@@H](OC)C2)nc1-c1ncnn1C` [Example 104, methyl 2-((3S,4R)-4-(4-chloro-3-cyano-5-methyl-1H-pyrrole-2-carboxamido)-3-methoxypiperidin-1-yl)-4-(1-methyl-1H-1,2,4-triazol-5-yl)thiazole-5-carboxylate] was tested, and the inhibition at 1 µM was 86.4%.
For `CCOC(=O)c1sc(N2CC[C@@H](NC(=O)c3[nH]c(C)c(Cl)c3C#N)[C@@H](OC)C2)nc1-c1ncccn1` [Example 105, ethyl 2-((3S,4R)-4-(4-chloro-3-cyano-5-methyl-1H-pyrrole-2-carboxamido)-3-methoxypiperidin-1-yl)-4-(pyrimidin-2-yl)thiazole-5-carboxylate], the inhibition at 1 µM was 103%.
With `CCOC(=O)c1sc(N2CC[C@@H](NC(=O)c3[nH]c(C)c(Cl)c3C#N)[C@@H](OC)C2)nc1-c1ncccc1F` [Example 106, ethyl 2-((3S,4R)-4-(4-chloro-3-cyano-5-methyl-1H-pyrrole-2-carboxamido)-3-methoxypiperidin-1-yl)-4-(3-fluoropyridin-2-yl)thiazole-5-carboxylate] the inhibition at 1 µM was 101%.
`CCOC(=O)c1sc(N2CC[C@@H](NC(=O)c3[nH]c(C)c(Cl)c3C#N)[C@@H](OC)C2)nc1-c1cn(C)cn1` [Example 108, ethyl 2-((3S,4R)-4-(4-chloro-3-cyano-5-methyl-1H-pyrrole-2-carboxamido)-3-methoxypiperidin-1-yl)-4-(1-methyl-1H-imidazol-4-yl)thiazole-5-carboxylate] showed an inhibition at 1 µM of 86.6%.
`CO[C@H]1CN(c2nc(-c3cn(C)nn3)c(C(=O)O)s2)CC[C@H]1NC(=O)c1[nH]c(C)c(Cl)c1Cl` [Example 109, 2-((3S,4R)-4-(3,4-dichloro-5-methyl-1H-pyrrole-2-carboxamido)-3-methoxypiperidin-1-yl)-4-(1-methyl-1H-1,2,3-triazol-4-yl)thiazole-5-carboxylic acid] gave an inhibition at 1 µM of 101%.
Compound `COc1cccc(-c2nc(N3CC[C@@H](NC(=O)c4[nH]c(C)c(Cl)c4Cl)[C@@H](OC)C3)sc2C(=O)O)n1` [Example 111, 2-((3S,4R)-4-(3,4-dichloro-5-methyl-1H-pyrrole-2-carboxamido)-3-methoxypiperidin-1-yl)-4-(6-methoxypyridin-2-yl)thiazole-5-carboxylic acid] has an inhibition at 1 µM of 105%.
For `COc1ccnc(-c2nc(N3CC[C@@H](NC(=O)c4[nH]c(C)c(Cl)c4Cl)[C@@H](OC)C3)sc2C(=O)O)c1` [Example 112, 2-((3S,4R)-4-(3,4-dichloro-5-methyl-1H-pyrrole-2-carboxamido)-3-methoxypiperidin-1-yl)-4-(4-methoxypyridin-2-yl)thiazole-5-carboxylic acid], the inhibition at 1 µM was 81.1%.
For `CO[C@H]1CN(c2nc(-c3cnc(C)cn3)c(C(=O)O)s2)CC[C@H]1NC(=O)c1[nH]c(C)c(Cl)c1Cl` [Example 113, 2-((3S,4R)-4-(3,4-dichloro-5-methyl-1H-pyrrole-2-carboxamido)-3-methoxypiperidin-1-yl)-4-(5-methylpyrazin-2-yl)thiazole-5-carboxylic acid], the inhibition at 1 µM was 92.9%.
With `CO[C@H]1CN(c2nc(-c3ncccc3F)c(C(=O)O)s2)CC[C@H]1NC(=O)c1[nH]c(C)c(Cl)c1Cl` [Example 114, 2-((3S,4R)-4-(3,4-dichloro-5-methyl-1H-pyrrole-2-carboxamido)-3-methoxypiperidin-1-yl)-4-(3-fluoropyridin-2-yl)thiazole-5-carboxylic acid] the inhibition at 1 µM was 82.9%.
`Cc1[nH]c(C(=O)N[C@@H]2CCN(c3nc(-c4cn(C)nn4)c(C(=O)O)s3)C[C@@H]2F)c(Cl)c1Cl` [Example 116, 2-((3S,4R)-4-(3,4-dichloro-5-methyl-1H-pyrrole-2-carboxamido)-3-fluoropiperidin-1-yl)-4-(1-methyl-1H-1,2,3-triazol-4-yl)thiazole-5-carboxylic acid] showed an inhibition at 1 µM of 101%.
`COc1cccc(-c2nc(N3CC[C@@H](NC(=O)c4[nH]c(C)c(Cl)c4Cl)[C@@H](F)C3)sc2C(=O)O)n1` [Example 117, 2-((3S,4R)-4-(3,4-dichloro-5-methyl-1H-pyrrole-2-carboxamido)-3-fluoropiperidin-1-yl)-4-(6-methoxypyridin-2-yl)thiazole-5-carboxylic acid] showed an inhibition at 1 µM of 108%.
For `Cc1cnc(-c2nc(N3CC[C@@H](NC(=O)c4[nH]c(C)c(Cl)c4Cl)[C@@H](F)C3)sc2C(=O)O)cn1` [Example 118, 2-((3S,4R)-4-(3,4-dichloro-5-methyl-1H-pyrrole-2-carboxamido)-3-fluoropiperidin-1-yl)-4-(5-methylpyrazin-2-yl)thiazole-5-carboxylic acid], the inhibition at 1 µM was 92.1%.

Reference: patent US20080312255A1 (ASTRAZENECA AB, priority 2007, published 2008)
